Results reported in article PMC5489165, “Identification of benzazole compounds that induce HIV-1 transcription” (PLoS ONE, 2017).
Like-named read-outs stand apart in the source and are kept apart here.

Experiments:
[1] = Cytotoxicity assay in SupT1 cells (ATP, CellTiter-Glo); type: cell-based; details: human; for selectivity ratio at 72 h: read-out: Selective window, CC50 versus EC2X
Description: (§1) SupT1 cells were plated at 100,000 per well in 96-well, white-walled plates with serial dilutions of test compound in a total volume of 100 μl RPMI-1640 medium containing 10% FBS and 0.5% DMSO. PBMCs were plated similarly at 50,000 cells/well and stimulated by addition of 40 μg/ml PHA and 80 ng/ml interleukin-2 (IL-2). Cells were incubated for 72 h at 37°C, 5% CO2. ATP was quantified using the CellTiter-Glo Luminescent Cell Viability Assay (Promega, Madison, WI) on a ViewLux microplate imager (Perkin Elmer, Waltham, MA). Percent cytotoxicity was determined relative to vehicle-only treated wells.

[2] = Cytotoxicity assay in stimulated PBMCs (ATP, CellTiter-Glo); type: cell-based; details: PBMCs stimulated with PHA and IL-2, ATP quantification
Description: as §1

[3] = test system: HIV-1 Gag (p24) in ACH-2 cells; test: Intracellular staining for HIV Gag in ACH-2 cells (flow cytometry); type: cell-based; details: for Intracellular Gag, percentage of positive cells: 16 h, 30 μM Cmpd 1 or Cmpd 2, 10 μM SAHA, 1 mM JQ1 or 10 ng/ml PMA, single experiment (Fig 4A)
Description: ACH-2 cells were treated as indicated and HIV-1 expression was monitored by intracellular staining for p24. Approximately, 1 × 10^6 cells were collected and washed in PBS before fixing by resuspending in 100 μl of BD Cytofix/Cytoperm (BD Biosciences, San Jose, CA) at 4°C for at least 20 min. Cells were then harvested by centrifugation and resuspended in 100 μl BD PermWash (50 mM NH4Cl, 5 mM EDTA, 0.1% saponin, 0.5% BSA, PBS and 1 mg/ml of anti-HIV-Gag PE (Clone KC57, Beckman Coulter, Brea CA). Cells were stained for 30 min, washed with the PermWash, and resuspended in FACS buffer (2 mM EDTA, 0.5% BSA, 1% paraformaldehyde in PBS). Cells were analyzed by flow cytometry using a FACSCalibur instrument (BD Biosciences). Flow cytometry was performed at the Boston University School of Medicine flow cytometry core.
Fig 4 Induction of HIV-1 expressing cells following treatment with latency reversing agents. ACH-2 cells were not treated or treated with a final concentration of 30 μM Cmpd 1 or Cmpd 2, 10 μM SAHA, 1 mM JQ1 or 10 ng/ml PMA for 16 h. Cells were stained using anti-HIV-Gag-PE and analyzed by flow cytometry. Numbers within the profiles represent the percentage of positive cells. These profiles are from a single experiment. B) Data from four independent experiments. Y-axis is mean of % p24 positive cells. * Cmpd 1 p-value […] compared to other treatments using a two-tailed t-test. TEXT PRINTED IN THE PICTURE: (A) Cmpd 1: Intracellular Gag: 65.6% | (A) Cmpd 2: Intracellular Gag: 33.9% | (A) SAHA: Intracellular Gag: 23.0% | (A) JQ1: Intracellular Gag: 16.7% | (A) PMA: Intracellular Gag: 94.2%

[4] = test system: Epstein-Barr virus (EBV) in Raji cells; test: EBV activation assay in Raji cells (BZLF1 qRT-PCR); type: cell-based
[5] = Pharmacokinetics in CD-1 mice; type: in vivo; details: mouse, 10 mg/kg, PO
Description: All animal studies were performed in compliance with IACUC approved protocols at AAALAC-certified animal facilities. Pharmacokinetics of test compounds were evaluated in CD-1 mice (Charles River Laboratories, Wilmington, MA). Compounds were formulated as a suspension in 0.5% hydroxypropylmethyl cellulose with 0.1% Tween 80 and administered by gavage at a dose of 10 mg/kg. […] Mice were anaesthetized with CO2 followed by terminal exsanguination as per the Guide for the Care and Use of Laboratory Animals. Blood was collected by terminal cardiac puncture at 1, 2, 4, 7, 16, and 24 h post-dose (3 mice per time point), and centrifuged to collect plasma. Brain tissue was collected at the time of blood collection and homogenized in water. The concentrations of test compound in plasma and brain tissue were quantified by liquid chromatography-tandem mass spectrometry (LC-MS/MS). Briefly, the plasma and tissue homogenate samples were treated with an acetonitrile-methanol mixture containing an internal standard that is a close structural analog of the test compounds. The treated plasma and brain homogenate samples were centrifuged and the supernatant was collected and analyzed using electro-spray LC-MS/MS.

[6] = SupT1 cells, ATP quantification, 72 h, read-out: CC50, SupT1
[7] = CD-1, brain, read-out: AUC0-24, brain
[8] = CD-1, plasma, read-out: AUC0-24, plasma

SMILES	CC50 at 72 h [1, 6] [µM]	selectivity ratio at 72 h ([1]; SupT1 cells, with regards to respective EC2X (SEAP reporter))	CC50 at 72 h ([1]; T cells (SupT1) and PBMCs, read-out: CC50 across cytotoxicity assays) [µM]	CC50 at 72 h [2] [µM]	Intracellular Gag, percentage of positive cells [3] [%]	Fold more ACH-2 cells induced than with SAHA or JQ1 ([3]; SAHA or JQ1 used at active concentrations)	ACH-2 cells in which HIV-1 expression was induced ([3]; text statement (Fig 4))	Effect on BLZF1 mRNA (EBV) ([4]; Raji cells, 24 h, up to 100 μM)	AUC(0-t) [5, 7] [µM·h]	Cmax ([5]; CD-1, plasma) [nM]	AUC(0-t) [5, 8] [µM·h]	Cmax, brain [5] [µM]	selectivity ratio at 72 h ([1]; SupT1 cells)	Effect on BLZF1 mRNA (EBV) [4]
Nc1ccc2[nH]c(-c3ccc(-c4nc5cc(N)ccc5o4)cc3)nc2c1 [Compound 1, 2-(4-(5-amino-1H-benzimidazol-2-yl)phenyl)benzoxazol-5-amine]	5.2 ± 1.1	≥ 3	5 to 18	18 ± 6.8	65.6	approximately 2 fold	over 70%	little effect	0.12	550	2.2	0.065		
Nc1ccc2[nH]c(-c3ccc(-c4nc5ccc(N)cc5o4)cc3)nc2c1 [Compound 2]	> 100			> 100	33.9				0.054	180	0.92	0.054	≥ 3	little effect
